# Assay results from patent publication US20160343958A1, “ORGANIC TRANSISTOR, COMPOUND, ORGANIC SEMICONDUCTOR MATERIAL FOR NON-LIGHT-EMITTING ORGANIC SEMICONDUCTOR DEVICE, MATERIAL FOR ORGANIC TRANSISTOR, COATING SOLUTION FOR NON-LIGHT-EMITTING ORGANIC SEMICONDUCTOR DEVICE, AND ORGANIC SEMICONDUCTOR FILM FOR NON-LIGHT-EMITTING ORGANIC SEMICONDUCTOR DEVICE” (FUJIFILM Corporation, priority 2014, published 2016).
# Experiment: Solubility in toluene
# Format: physicochemical
# Conditions: 5-level grade A-E
# Description: Each of the compounds of the present invention or comparative compounds (2% by mass, 1% by mass, 0.5% by mass, or 0.1% by mass each) was mixed with toluene (1 mL), heated to 100° C., and then left to stand for 30 minutes at room temperature. […] For practical use, the compound needs to be evaluated to be A, B, C, or D. The compound preferably needs to be evaluated to be A, B, or C, more preferably needs to be evaluated to be A or B, and particularly preferably needs to be evaluated to be A.
# E: Precipitation occurred at 0.1% by mass.
row,SMILES,Solubility
1,CCCc1ccc2c(c1)sc1c2ccc2c3ccc(CCC)cc3sc21 [Compound example 1],B (Precipitation did not occur at 1% by mass but occurred at 2% by mass.)
2,CCCCCc1ccc2c(c1)sc1c2ccc2c3ccc(CCCCC)cc3sc21 [Compound example 3],A (Precipitation did not occur at 2% by mass.)
3,CCCCCCCCc1ccc2c(c1)sc1c2ccc2c3ccc(CCCCCCCC)cc3sc21 [Compound example 6],A (Precipitation did not occur at 2% by mass.)
4,CCCCCCCCCCCCc1ccc2c(c1)sc1c2ccc2c3ccc(CCCCCCCCCCCC)cc3sc21 [Compound example 10],A (Precipitation did not occur at 2% by mass.)
5,CCCCCCCCCCCCCCCCCCc1ccc2c(c1)sc1c2ccc2c3ccc(CCCCCCCCCCCCCCCCCC)cc3sc21 [Compound example 16],B (Precipitation did not occur at 1% by mass but occurred at 2% by mass.)
6,CCCCCCCCc1ccc2cc3c(cc2c1)sc1c3ccc2c3cc4ccc(CCCCCCCC)cc4cc3sc21 [Compound example 20],B (Precipitation did not occur at 1% by mass but occurred at 2% by mass.)
7,CCCCCCCCCCCCc1ccc2cc3c(cc2c1)sc1c3ccc2c3cc4ccc(CCCCCCCCCCCC)cc4cc3sc21 [Compound example 24],B (Precipitation did not occur at 1% by mass but occurred at 2% by mass.)
8,CCCCCCCCc1ccc(-c2ccc3c(c2)sc2c3ccc3c4ccc(-c5ccc(CCCCCCCC)cc5)cc4sc32)cc1 [Compound example 34],B (Precipitation did not occur at 1% by mass but occurred at 2% by mass.)
9,CCCCCCCCc1ccc(-c2ccc3c(c2)sc2c3ccc3c4ccc(-c5ccc(CCCCCCCC)s5)cc4sc32)s1 [Compound example 62],B (Precipitation did not occur at 1% by mass but occurred at 2% by mass.)
10,CCCCCCCC/C=C/c1ccc2c(c1)sc1c2ccc2c3ccc(/C=C/CCCCCCCC)cc3sc21 [Compound example 298],B (Precipitation did not occur at 1% by mass but occurred at 2% by mass.)
11,CCCCCCC#Cc1ccc2c(c1)sc1c2ccc2c3ccc(C#CCCCCCC)cc3sc21 [Compound example 310],B (Precipitation did not occur at 1% by mass but occurred at 2% by mass.)
12,CCCCCCCCOc1ccc2c(c1)sc1c2ccc2c3ccc(OCCCCCCCC)cc3sc21 [Compound example 326],B (Precipitation did not occur at 1% by mass but occurred at 2% by mass.)
13,CCCCCCCCCCCCc1ccc2cc3c(cc2c1)sc1c3ccc2c3ccc(CCCCCCCCCCCC)cc3sc21 [Compound example 344],B (Precipitation did not occur at 1% by mass but occurred at 2% by mass.)
14,CCCCCCCCCCCCc1ccc2c(c1)sc1c2ccc2c3ccccc3sc21 [Compound example 358],B (Precipitation did not occur at 1% by mass but occurred at 2% by mass.)
15,CCCCCCCCCCCCc1ccc(-c2ccc3c(c2)sc2c3ccc3c4ccccc4sc32)cc1 [Compound example 372],B (Precipitation did not occur at 1% by mass but occurred at 2% by mass.)
16,CCCCCCCCCCCCc1ccc(-c2ccc3c(c2)sc2c3ccc3c4ccccc4sc32)s1 [Compound example 386],B (Precipitation did not occur at 1% by mass but occurred at 2% by mass.)
17,CCCCCCCCc1ccc2sc3c(ccc4c5cc(CCCCCCCC)ccc5sc43)c2c1 [Compound example 396],B (Precipitation did not occur at 1% by mass but occurred at 2% by mass.)
18,CCCCC(CC)Cc1ccc2c(c1)sc1c2ccc2c3ccc(CC(CC)CCCC)cc3sc21 (stereo not shown) [Compound example 407],A (Precipitation did not occur at 2% by mass.)
19,CCCCCCCCc1ccc2c(c1)oc1c2ccc2c3ccc(CCCCCCCC)cc3oc21 [Compound example 416],C (Precipitation did not occur at 0.5% by mass but occurred at 1% by mass.)
20,C[Si](C)(C)C#Cc1c(C#C[Si](C)(C)C)c2c3ccc(-c4cccs4)cc3sc2c2sc3cc(-c4cccs4)ccc3c12 [Compound example 427],D (Precipitation did not occur at 0.1% by mass but occurred at 0.5% by mass.)
21,"c1ccc2c(c1)sc1c2ccc2c3ccccc3sc21 [comparative compound 1, reference compound]",E (Precipitation occurred at 0.1% by mass.)
22,"Cc1ccc2c(c1)sc1c2ccc2c3ccc(C)cc3sc21 [comparative compound 2, reference compound]",E (Precipitation occurred at 0.1% by mass.)
23,"c1ccc2c(c1)sc1c2ccc2c3cccc(-c4ccc5c6ccccc6c6ccccc6c5c4)c3sc21 [comparative compound 6, reference compound]",E (Precipitation occurred at 0.1% by mass.)
24,"c1ccc(-c2cccc(-c3ccc4sc5c(ccc6c7cc(-c8cccc(-c9ccccc9)c8)ccc7sc65)c4c3)c2)cc1 [compound 3, reference compound]",E (Precipitation occurred at 0.1% by mass.)
25,"c1ccc(-c2ccc3sc4c5sc6ccc(-c7ccccc7)cc6c5c(-c5ccccc5)c(-c5ccccc5)c4c3c2)cc1 [compound 4, reference compound]",E (Precipitation occurred at 0.1% by mass.)
